The text below walks through data of US20050250945A1, “Triazine compounds as inhibitors of bacterial type III protein secretion systems” (priority 2004, published 2005).

Each structure is given as a SMILES string.

Assay type in all cases: cell-based
Experiment [1] concerns type III protein secretion system of P. aeruginosa PA103 (ExoU secretion). Put plainly: Tertiary assay: Type III-dependent secretion of ExoU by P. aeruginosa PA103 (SDS-PAGE band quantitation). As to conditions: Pseudomonas aeruginosa; P. aeruginosa PA103, ExoU secreted into extracellular medium. The text has this: Tertiary assay: Inhibition of Type III protein secretion of effectors from a Pseudomonas aeruginosa system. Type III protein secretion is used by P. aeruginosa to secrete several essential virulence determinants. One effector of the type III protein secretion system of P. aeruginosa PA103 is the virulence determinants ExoU.
The amount of Type III-dependent secretion of ExoU by P. aeruginosa PA103 can be determined in a cell-based assay by quantification of the 73.9 kDa ExoU protein secreted into the extracellular medium. Such quantitation can be achieved by growing strain PA103 in a deferrated medium in the presence of nitrilotriacetic acid (an inducer of Type III protein secretion in P. aeruginosa) and either in the presence or absence of putative inhibitors. After a prolonged growth period, the cells are sedimented and the supernatants concentrated by ammonium sulfate precipitation. The proteins in the resuspended pellets are separated by electrophoresis on SDS-polyacrylamide gels. After staining gels with Colloidal Blue™, the 73.9 kDa ExoU band is quantitated by scanning through an imager. The effects of inhibitors on the intensity of the ExoU band may be measured relative to that of untreated controls.

Experiment [2] deals with SPI1 type III protein secretion system (SipB secretion). Nature of the experiment: Secondary assay: Type III-dependent protein secretion of the SipB polypeptide (immunoblot). As to conditions: Salmonella enterica, read-out: SipB IC50(uM). Here is the method: Secondary assay: Type III-dependent protein secretion of the SipB polypeptide by S. enterica. The SipB protein of S. enterica is another effector of the SPI1 type III protein secretion system from S. enterica. In this cell-based procedure, the Type III-dependent secretion of SipB from the bacterial cytoplasm to the extracellular medium was measured through its reactivity with a cognate mouse monoclonal.
Salmonella enterica cells growing either in the presence or in the absence of inhibitors are induced for the production of SipB. Following an established period of growth the cells are sedimented and the amount of SipB present in the supernatant is quantified with a scanning imager following application of immunoblot techniques. Detection may employ an anti-SipB mouse monoclonal antibody (e.g., obtained from Jorge Galan, SUNY at Stony Brook, N.Y.) followed by treatment with commercially available sheep anti-mouse polyclonal antibody conjugated with horseradish peroxidase. Thereafter the membrane is treated with a peroxidase chemiluminescent substrate and exposed to film for an appropriate exposure time. Inhibition may be measured relative to untreated controls.

Experiment [3] has as its system SPI1 type III protein secretion system (SopE‘-’Bla secretion). Put plainly: Primary assay: Type III protein secretion of the chimeric SopE‘-’Bla polypeptide (nitrocefin hydrolysis). As to conditions: Salmonella enterica, read-out: SopE IC50(uM). An excerpt: Primary assay: Type III protein secretion of the chimeric SopE‘-’Bla polypeptide by Salmonella enterica. This procedure is a cell-based assay that measures the type III-dependent secretion by Salmonella enterica of a plasmid-encoded chimeric polypeptide whose synthesis can be regulated, and which is endowed with an enzymatic activity that can be monitored colorimetrically by hydrolysis of a substrate that is unable to penetrate into the bacterial cytoplasm within the time constraints of the reaction. Thus, the colorimetric reaction is not influenced by SopE‘-’Bla polypeptide in the bacterial cytoplasm. Instead, it effectively measures the amount of polypeptide that has been secreted from the S. enterica cytoplasm to the extracellular medium via type III system protein secretion.
The SopE‘-’Bla recombinant polypeptide consists of two functionally distinct domains spliced together. The N-terminus domain is encoded by a polynucleotide region specifying the signal for type III secretion of the SopE polypeptide of S. enterica, an effector of the SPI1 type III protein secretion system. The C-terminus domain of SopE‘-’Bla consists of a 263 amino acid peptide sequence that corresponds to the TEM-1 β-lactamase expressed by plasmid pBR322 but without its N-terminal signal sequence. The TEM-1 β-lactamase part of the SopE‘-’Bla chimeric polypeptide is used as a reporter enzyme. It is capable of hydrolyzing nitrocefin resulting in a product whose accumulation can be monitored by colorimetric detection. The secretion of the SopE‘—’Bla chimeric polypeptide from the cytoplasm to the extracellular medium is dependent on type III protein secretion.
For this procedure, cells grown under conditions known to favor a functional SPI1 secretion system are induced for expression of the SopE‘-’Bla protein and grown either in the presence or in the absence of putative inhibitors for determined time. Nitrocefin is then added to the various cultures and its hydrolysis are used for quantitation. An inhibitor of Type III protein secretion is generally a compound that reduces the signal of the enzymatic reaction by decreasing the amount of SopE‘-’Bla secreted into the extracellular medium.

For the compound `O=C(O)C(Cc1ccc(-c2ccc(C(F)(F)F)cc2)cc1)Nc1nc(-c2ccc(C(F)(F)F)cc2)nc(N2CCN(c3ccccn3)CC2)n1` (centres unmarked) [Compound 5, 2-[4-(4-Pyridin-2-yl-piperazin-1-yl)-6-(4-trifluoromethylphenyl)[1,3,5]triazin-2-yl-amino]-3-(4′-trifluoromethylbiphenyl-4-yl)propionic acid], the IC50 in experiment [1] is over 100 µM; in experiment [2], 18.2 µM; in experiment [3], 10.2 µM.
In the same order, the values of `O=C(O)C(Cc1ccc(-c2ccc(-c3ccccc3)cc2)cc1)Nc1nc(-c2ccc(-c3ccccc3)cc2)nc(N2CCN(c3ccccn3)CC2)n1` (centres unmarked) [Compound 7, 2-[4-Biphenyl-4-yl-6-(4-pyridin-2-yl-piperazin-1-yl)[1,3,5]triazin-2-yl-amino]-3[1,1′;4′,1″]terphenyl-4-yl-propionic acid] are over 100 µM, 17.5 µM and 12.6 µM.
Regarding `O=C(O)[C@H](C[S+]([O-])Cc1ccccc1)Nc1nc(-c2ccc(C(F)(F)F)cc2)nc(N2CCc3ccccc3C2)n1` (stereo partly drawn) [Compound 3, (R)-2-[4-(3,4-Dihydro-1H-isoquinolin-2-yl)-6-(4-trifluoromethylphenyl)-[1,3,5]triazin-2-yl-amino]-3-phenylmethanesulfinylpropionic acid], the concentration for half-maximal inhibition (IC50) is over 100 µM in experiment [1], 12.5 µM in experiment [2] and 8.5 µM in experiment [3].
For `O=C(O)[C@H](C[S+]([O-])Cc1ccccc1)Nc1nc(-c2ccc(-c3ccccc3)cc2)nc(N2CCN(c3ccccn3)CC2)n1` (stereo partly drawn) [Compound 8, (R)-2-[4-Biphenyl-4-yl-6-(4-pyridin-2-yl-piperazin-1-yl)[1,3,5]triazin-2-yl-amino]-3-phenylmethanesulfinylpropionic acid], the IC50 in experiment [1] was over 100 µM; in experiment [2] it was 34 µM; in experiment [3], 14.4 µM.
In the same order, the values of `O=C(O)[C@H](CSCc1ccccc1)Nc1nc(Nc2ccc(C(F)(F)F)cc2)nc(-c2ccc3c(c2)OCO3)n1` [Compound 26, (R)-2-[4-Benzo[1,3]dioxol-5-yl-6-(4-trifluoromethylphenylamino)[1,3,5]triazin-2-yl-amino]-3-benzylsulfanylpropionic acid] are 52.1 µM, 28.1 µM and 5.8 µM.
For `O=C(O)C(Cc1ccc(Cl)cc1)Nc1nc(-c2ccc(-c3ccccc3)cc2)nc(N2CCN(c3ccccn3)CC2)n1` (centres unmarked) [Compound 6, 2-[4-Biphenyl-4-yl-6-(4-pyridin-2-yl-piperazin-1-yl)[1,3,5]triazin-2-yl-amino]-3-(4-chlorophenyl)propionic acid], in that order: over 100 µM, 28 µM and 5.3 µM.
For `O=C(O)C(Cc1ccc(Cl)cc1)Nc1nc(-c2ccc(C(F)(F)F)cc2)nc(N2CCN(c3ccccn3)CC2)n1` (centres unmarked) [Compound 4, 3-(4-Chlorophenyl)-2-[4-(4-pyridin-2-yl-piperazin-1-yl)-6-(4-trifluoromethylphenyl)[1,3,5]triazin-2-yl-amino]propionic acid], in that order: over 100 µM, 46.4 µM and 8.5 µM.
Turning to `O=C(O)C(Cc1ccc(Cl)cc1)Nc1nc(Nc2ccc(C(F)(F)F)cc2)nc(-c2ccc(F)cc2)n1` (centres unmarked) [Compound 27, 3-(4-Chlorophenyl)-2-[4-(4-fluorophenyl)-6-(4-trifluoromethylphenylamino)-[1,3,5]triazin-2-yl-amino]propionic acid], the IC50 in experiment [2] is over 100 µM; in experiment [3], 6.1 µM.
Take `O=C(O)[C@H](C[S+]([O-])Cc1ccccc1)Nc1nc(-c2ccc(C(F)(F)F)cc2)nc(N2CCN(c3ccccn3)CC2)n1` (stereo partly drawn) [Compound 10, (R)-3-Phenylmethanesulfinyl-2-[4-(4-pyridin-2-yl-piperazin-1-yl)-6-(4-trifluoromethylphenyl)[1,3,5]triazin-2-yl-amino]propionic acid]: the results for the IC50 in experiment [1], in experiment [2] and in experiment [3] were over 100 µM, over 100 µM and 50.1 µM, respectively.
Take `O=C(O)[C@H](COCc1ccccc1)Nc1nc(-c2ccc3ccccc3c2)nc(N2CCN(c3ccccn3)CC2)n1` [Compound 1, (S)-3-Benzyloxy-2-[4-naphthalen-2-yl-6-(4-pyridin-2-yl-piperazin-1-yl)-[1,3,5]triazin-2-yl-amino]propionic acid]: the values for the half-maximal inhibitory concentration (IC50) in experiment [1], in experiment [2] and in experiment [3] were over 100 µM, 64.8 µM and 12.4 µM, respectively.
For the compound `O=C(O)C(CSCc1ccccc1)Nc1nc(-c2ccc(-c3ccccc3)cc2)nc(N2CCN(c3ccccn3)CC2)n1` (stereo in doubt) [Compound 2, (S)-3-Benzylsulfanyl-2-[4-biphenyl-4-yl-6-(4-pyridin-2-yl-piperazin-1-yl)-[1,3,5]triazin-2-yl-amino]propionic acid], the half-maximal inhibitory concentration (IC50) in experiment [1] is over 100 µM; in experiment [2], 36.1 µM; in experiment [3], 6.4 µM.

As usually defined, the IC50 is the concentration that inhibits the measured activity by half.
